≈ marks a conversion by molar mass, not a printed value.
Columns and labels:
[1] = system: Serratia marcescens IAM 1184; experiment: Antibacterial activity, agar-dilution MIC, organism No. 13; format: cell-based; details: Serratia marcescens, IAM1184; Organism No. 13, bouillon-agar; read-out: Minimum Inhibitory Concentration
Method in brief: (§1)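 Values come from agar-dilution plates prepared with bouillon agar; they represent the least specimen concentration (μg/ml of medium) giving inhibition.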

[2] = system: Candida albicans IAM 4905; experiment: Antifungal activity, agar-dilution MIC, organism No. 29; format: cell-based; details: Candida albicans, IAM4905; Organism No. 29, bouillon-agar; read-out: Minimum Inhibitory Concentration
Method in brief: as §1

[3] = system: Pseudomonas aeruginosa NCTC 10490; experiment: Antibacterial activity, agar-dilution MIC, organism No. 16; format: cell-based; details: Pseudomonas aeruginosa, NCTC10490; Organism No. 16, bouillon-agar; read-out: Minimum Inhibitory Concentration
Method in brief: as §1

[4] = system: Staphylococcus aureus FDA 209PJc-1; experiment: Antibacterial activity, agar-dilution MIC, organism No. 1; format: cell-based; details: Staphylococcus aureus, FDA209PJC1; Organism No. 1, bouillon-agar; read-out: Minimum Inhibitory Concentration
Method in brief: as §1

[5] = system: Salmonella typhimurium IID 971; experiment: Antibacterial activity, agar-dilution MIC, organism No. 8; format: cell-based; details: Salmonella enterica; Organism No. 8, bouillon-agar; read-out: Minimum Inhibitory Concentration
Method in brief: as §1

[6] = system: Pseudomonas aeruginosa IFO 3445; experiment: Antibacterial activity, agar-dilution MIC, organism No. 15; format: cell-based; details: Pseudomonas aeruginosa, IFO3445; Organism No. 15, bouillon-agar; read-out: Minimum Inhibitory Concentration
Method in brief: as §1

[7] = system: Proteus vulgaris HX-19; experiment: Antibacterial activity, agar-dilution MIC, organism No. 21; format: cell-based; details: Proteus vulgaris, HX19; Organism No. 21, bouillon-agar; read-out: Minimum Inhibitory Concentration
Method in brief: as §1

[8] = system: Pseudomonas aeruginosa PAO 1; experiment: Antibacterial activity, agar-dilution MIC, organism No. 17; format: cell-based; details: Pseudomonas aeruginosa, PAO1; Organism No. 17, bouillon-agar; read-out: Minimum Inhibitory Concentration
Method in brief: as §1

[9] = system: Enterobacter aerogenes ATCC 13048; experiment: Antibacterial activity, agar-dilution MIC, organism No. 23; format: cell-based; details: Klebsiella aerogenes, ATCC13048; Organism No. 23, bouillon-agar; read-out: Minimum Inhibitory Concentration
Method in brief: as §1

[10] = system: Mycoplasma pneumoniae IID817; experiment: Antimycoplasmal activity, MIC by phenol red colour change, organism No. 28; format: cell-based; details: Mycoplasma, IID817; Organism No. 28, PPLO broth + 1% glucose, 37° C.; read-out: Minimum Inhibitory Concentration (MIC)
Protocol: Mycoplasma pneumoniae IID817 was used as the test microorganism in a culture medium prepared by adding 1% of glucose to "PPLO broth (manufactured by Difco Co.) liquid culture medium" at 37° C. with phenol red as an indicator, thereby culturing the test microorganism.

[11] = system: Proteus morganii IFO 3848; experiment: Antibacterial activity, agar-dilution MIC, organism No. 18; format: cell-based; details: Morganella morganii, IFO3848; Organism No. 18, bouillon-agar; read-out: Minimum Inhibitory Concentration
Method in brief: as §1

[12] = system: Staphylococcus aureus MS 353; experiment: Antibacterial activity, agar-dilution MIC, organism No. 3; format: cell-based; details: Staphylococcus aureus, MS353; Organism No. 3, bouillon-agar; read-out: Minimum Inhibitory Concentration
Method in brief: as §1

[13] = system: Salmonella typhi 901; experiment: Antibacterial activity, agar-dilution MIC, organism No. 9; format: cell-based; details: Salmonella enterica, TYPHI, read-out: Minimum Inhibitory Concentration
Method in brief: as §1

[14] = system: Streptococcus pyogenes Cook; experiment: Antibacterial activity, agar-dilution MIC, organism No. 4; format: cell-based; details: Streptococcus pyogenes; Organism No. 4, bouillon-agar; read-out: Minimum Inhibitory Concentration
Method in brief: as §1

[15] = system: Bacillus subtilis ATCC 6633; experiment: Antibacterial activity, agar-dilution MIC, organism No. 14; format: cell-based; details: Bacillus subtilis, ATCC6633; Organism No. 14, bouillon-agar; read-out: Minimum Inhibitory Concentration
Method in brief: as §1

[16] = system: Staphylococcus aureus Terajima; experiment: Antibacterial activity, agar-dilution MIC, organism No. 2; format: cell-based; details: Staphylococcus aureus; Organism No. 2, bouillon-agar; read-out: Minimum Inhibitory Concentration
Method in brief: as §1

[17] = system: Streptococcus faecium IFO 3826; experiment: Antibacterial activity, agar-dilution MIC, organism No. 27; format: cell-based; details: Enterococcus faecium, IFO3826; Organism No. 27, bouillon-agar; read-out: Minimum Inhibitory Concentration
Method in brief: as §1

[18] = system: Salmonella shottmuelleri 8006; experiment: Antibacterial activity, agar-dilution MIC, organism No. 11; format: cell-based; details: Salmonella, 8006; Organism No. 11, bouillon-agar; read-out: Minimum Inhibitory Concentration
Method in brief: as §1

[19] = system: Streptococcus pyogenes IFO 3340; experiment: Antibacterial activity, agar-dilution MIC, organism No. 26; format: cell-based; details: Streptococcus pyogenes, IFO3340; Organism No. 26, bouillon-agar; read-out: Minimum Inhibitory Concentration
Method in brief: as §1

[20] = system: Proteus rettgeri IFO 3850; experiment: Antibacterial activity, agar-dilution MIC, organism No. 22; format: cell-based; details: Providencia rettgeri, IFO3850; Organism No. 22, bouillon-agar; read-out: Minimum Inhibitory Concentration
Method in brief: as §1

[21] = system: Escherichia coli K12 C600 IAM 1264; experiment: Antibacterial activity, agar-dilution MIC, organism No. 6; format: cell-based; details: Escherichia coli, IAM1264; Organism No. 6, bouillon-agar; read-out: Minimum Inhibitory Concentration
Method in brief: as §1

[22] = system: Aspergillus niger IFO 6342; experiment: Antifungal activity, agar-dilution MIC, organism No. 30; format: cell-based; details: Aspergillus niger, IFO6342; Organism No. 30, bouillon-agar; read-out: Minimum Inhibitory Concentration
Method in brief: as §1

[23] = system: Proteus vulgaris OX-19; experiment: Antibacterial activity, agar-dilution MIC, organism No. 20; format: cell-based; details: Proteus vulgaris, OX19; Organism No. 20, bouillon-agar; read-out: Minimum Inhibitory Concentration
Method in brief: as §1

[24] = system: Micrococcus luteus ATCC 9341; experiment: Antibacterial activity, agar-dilution MIC, organism No. 25; format: cell-based; details: Micrococcus luteus, ATCC9341; Organism No. 25, bouillon-agar; read-out: Minimum Inhibitory Concentration
Method in brief: as §1

[25] = system: Escherichia coli NIHJ-JC-2; experiment: Antibacterial activity, agar-dilution MIC, organism No. 5; format: cell-based; details: Escherichia coli, NIHJJC2; Organism No. 5, bouillon-agar; read-out: Minimum Inhibitory Concentration
Method in brief: as §1

[26] = system: Salmonella enteritidis G 14; experiment: Antibacterial activity, agar-dilution MIC, organism No. 12; format: cell-based; details: Salmonella enterica, ENTERITIDIS; Organism No. 12, bouillon-agar; read-out: Minimum Inhibitory Concentration
Method in brief: as §1

[27] = system: Proteus mirabilis IFO 3849; experiment: Antibacterial activity, agar-dilution MIC, organism No. 19; format: cell-based; details: Proteus mirabilis, IFO3849; Organism No. 19, bouillon-agar; read-out: Minimum Inhibitory Concentration
Method in brief: as §1

[28] = system: Klebsiella pneumoniae PCI-602; experiment: Antibacterial activity, agar-dilution MIC, organism No. 7; format: cell-based; details: Klebsiella pneumoniae, PCI602; Organism No. 7, bouillon-agar; read-out: Minimum Inhibitory Concentration
Method in brief: as §1

[29] = system: Salmonella paratyphi-A 1015; experiment: Antibacterial activity, agar-dilution MIC, organism No. 10; format: cell-based; details: Salmonella enterica, PARATYPHI, read-out: Minimum Inhibitory Concentration
Method in brief: as §1

[30] = system: Enterobacter cloacae 963; experiment: Antibacterial activity, agar-dilution MIC, organism No. 24; format: cell-based; details: Enterobacter cloacae, 963; Organism No. 24, bouillon-agar; read-out: Minimum Inhibitory Concentration
Method in brief: as §1

[31] = Stability in a non-solvent state; format: physicochemical

Row | SMILES | MIC [1] [µg/mL] | MIC [2] [µg/mL] | MIC [3] [µg/mL] | MIC [4] [µg/mL] | MIC [5] [µg/mL] | MIC [6] [µg/mL] | MIC [7] [µg/mL] | MIC [8] [µg/mL] | MIC [9] [µg/mL] | MIC [10] [µg/mL] | MIC [11] [µg/mL] | MIC [12] [µg/mL] | MIC [13] [µg/mL] | MIC [14] [µg/mL] | MIC [15] [µg/mL] | MIC [16] [µg/mL] | MIC [17] [µg/mL] | MIC [18] [µg/mL] | MIC [19] [µg/mL] | MIC [20] [µg/mL] | also measured
1 | [C-]#[N+]C12CC3(/C=C/C(=O)OCc4c(C)cc(C)cc4C)OC3C1O2 (stereo not shown) [compound 11] | 12.5 (≈ 38.4 µM) | 1.56 (≈ 4.79 µM) | > 100 | 3.13 (≈ 9.62 µM) | 12.5 (≈ 38.4 µM) | > 100 | 3.13 (≈ 9.62 µM) | > 100 | > 100 | < 0.2 | 3.13 (≈ 9.62 µM) | 3.13 (≈ 9.62 µM) | 6.25 (≈ 19.2 µM) | 3.13 (≈ 9.62 µM) | 0.78 (≈ 2.4 µM) | 6.25 (≈ 19.2 µM) | 6.25 (≈ 19.2 µM) | 12.5 (≈ 38.4 µM) | 3.13 (≈ 9.62 µM) | 12.5 (≈ 38.4 µM) | MIC [21]: 25 µg/mL (≈ 76.8 µM); MIC [22]: 6.25 µg/mL (≈ 19.2 µM); MIC [23]: 6.25 µg/mL (≈ 19.2 µM); MIC [24]: < 0.1 µg/mL; MIC [25]: 25 µg/mL (≈ 76.8 µM); MIC [26]: 12.5 µg/mL (≈ 38.4 µM); MIC [27]: 12.5 µg/mL (≈ 38.4 µM); MIC [28]: 6.25 µg/mL (≈ 19.2 µM); MIC [29]: 12.5 µg/mL (≈ 38.4 µM); MIC [30]: > 100 µg/mL
2 | [C-]#[N+]C12CC3(/C=C/C(=O)OCC)OC3C1O2 (stereo not drawn) [Compound No. 2, ethyl β-substituted acrylate] | > 200 | 3.13 (≈ 14.1 µM) | > 200 | 12.5 (≈ 56.5 µM) | 25 (≈ 113 µM) | > 200 | 0.2 (≈ 0.904 µM) | > 200 | > 200 | < 0.2 | 6.25 (≈ 28.3 µM) | 12.5 (≈ 56.5 µM) | 6.25 (≈ 28.3 µM) | > 200 | 50 (≈ 226 µM) | 12.5 (≈ 56.5 µM) | 12.5 (≈ 56.5 µM) | 6.25 (≈ 28.3 µM) | 100 (≈ 452 µM) | > 200 | MIC [21]: 25 µg/mL (≈ 113 µM); stability (in words) [31]: decomposing and colouring tendency in a non-solvent state; MIC [22]: 12.5 µg/mL (≈ 56.5 µM); MIC [23]: 6.25 µg/mL (≈ 28.3 µM); MIC [24]: 1.56 µg/mL (≈ 7.05 µM); MIC [25]: 50 µg/mL (≈ 226 µM); MIC [26]: 6.25 µg/mL (≈ 28.3 µM); MIC [27]: 25 µg/mL (≈ 113 µM); MIC [28]: 6.25 µg/mL (≈ 28.3 µM); MIC [29]: 6.25 µg/mL (≈ 28.3 µM); MIC [30]: > 200 µg/mL
3 | [C-]#[N+]C12CC3(/C=C/C(=O)Nc4cccc(C(F)(F)F)c4)OC3C1O2 (stereo not shown) [compound 47] | 25 (≈ 74.3 µM) | 1.56 (≈ 4.64 µM) | > 200 | < 0.05 | 3.13 (≈ 9.31 µM) | > 200 | < 0.05 | > 200 | > 200 | < 0.2 | < 0.05 | < 0.05 | 3.13 (≈ 9.31 µM) | 200 (≈ 595 µM) | 0.78 (≈ 2.32 µM) | 0.2 (≈ 0.595 µM) | 3.13 (≈ 9.31 µM) | 0.1 (≈ 0.297 µM) | 0.39 (≈ 1.16 µM) | 50 (≈ 149 µM) | MIC [21]: 200 µg/mL (≈ 595 µM); MIC [22]: 3.13 µg/mL (≈ 9.31 µM); MIC [23]: < 0.05 µg/mL; MIC [24]: 0.78 µg/mL (≈ 2.32 µM); MIC [25]: 200 µg/mL (≈ 595 µM); MIC [26]: 3.13 µg/mL (≈ 9.31 µM); MIC [27]: > 200 µg/mL; MIC [28]: < 0.05 µg/mL; MIC [29]: 3.13 µg/mL (≈ 9.31 µM); MIC [30]: > 200 µg/mL

Reference: US4684664A, “Derivatives of β-(4-isocyano-1,2,3,4-diepoxycyclopentyl) acrylic acid” (Kureha Kagaku Kogyo Kabushiki Kaisha, priority 1984, dated 1987)
